Test results from patent US20240270759A1, “Preparation of SHP2 phosphatase inhibitors and its applications” (Ya Therapeutics Inc, priority 2021, published 2024).
pIC50: −log10 of the molar value.

Target: T1, SHP2 full-length protein (Homo sapiens, UniProt Q06124)
T1 construct: purchased BPS Bioscience #79330
T1 sequence (Q06124 1-593): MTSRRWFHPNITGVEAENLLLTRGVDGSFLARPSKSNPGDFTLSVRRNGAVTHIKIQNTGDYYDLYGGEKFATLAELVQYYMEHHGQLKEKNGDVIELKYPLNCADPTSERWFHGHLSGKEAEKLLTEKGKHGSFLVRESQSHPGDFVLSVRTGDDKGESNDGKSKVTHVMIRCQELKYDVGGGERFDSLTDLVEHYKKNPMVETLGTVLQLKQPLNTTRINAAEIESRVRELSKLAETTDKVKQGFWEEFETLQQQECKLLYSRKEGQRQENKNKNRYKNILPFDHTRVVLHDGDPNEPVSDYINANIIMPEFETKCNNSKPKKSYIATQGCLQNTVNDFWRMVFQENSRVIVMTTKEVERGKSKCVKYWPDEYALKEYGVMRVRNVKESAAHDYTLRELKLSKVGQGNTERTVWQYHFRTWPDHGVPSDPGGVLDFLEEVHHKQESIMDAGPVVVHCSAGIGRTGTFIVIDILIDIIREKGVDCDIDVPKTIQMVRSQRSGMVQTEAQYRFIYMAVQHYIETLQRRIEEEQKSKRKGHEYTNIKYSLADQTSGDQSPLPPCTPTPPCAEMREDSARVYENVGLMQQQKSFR
Assay: SHP2 allosteric inhibition experiment (Homogeneous Full Length SHP-2 Assay Kit)
Type: biochemical
Conditions: full-length SHP2 0.06 nM with SHP-2 activating peptide; ten-point, 1 μM to 0.05 nM; read-out: IC50 Values of Compounds Inhibiting SHP2
Text: The following further describes and explains the present invention in combination with test examples, but these examples are not meant to limit the scope of the present invention. SHP2 allosteric inhibition experiment
The purpose of this test is to measure the ability of the compounds to inhibit the allosteric activity of the SHP2 full-length protein. Experimental equipment: a centrifuge (5810R) is purchased from Eppendorf Company; pipettes are purchased from Eppendorf Company and Rainin Company, and microplate readers are purchased from BioTek Company of the United States, SynergyH1 multimode microplate reader.
Experimental method: Homogeneous Full Length SHP-2 Assay Kit (BPS Bioscience, #79330) is used to detect SHP2 activity in vitro. First, add 18 μL of Master Mix to 96-well low-adsorption microplate (NUNC, #267342), that is, 0.5 μL of SHP-2 activating Peptide and 5 mM DTT are included in the reaction buffer with a final concentration of 1×. After centrifugation, add 5 μL of the compound to be tested in DMSO (final DMSO content is 1% (V/V) in each well: dissolve the compound to be tested in DMSO to 1 mM, conduct triple dilution with a total of 10 concentration levels ranging from 1 μM to 0.05 nM in the reaction buffer. After diluting SHP2 in 1× reaction buffer to a final concentration of 0.06 nM, add it to the reaction microwell plate, 2 μL per well. Set a full activity control ([…]) and a full inhibition control (without SHP-2) on the reaction plate, and incubate the reaction mixture at room temperature for 60 minutes after centrifugation.
After incubation, add 25 μL of Substrate solution to each well, containing Substrate with a final concentration of 10 μM and DTT with a final concentration of 5 mM, and after centrifugation, continue to incubate at room temperature for 30 minutes. After the reaction, set the excitation wavelength at 340 nm, the emission wavelength at 455 nm, and the gain value to 75 on the Synergy H1 microplate reader (Biotek) for reading.
Take the full activity control and full inhibition control as the values of Max and Min, and calculate the percentage inhibition rate of the wells treated with the compound based on the positive control wells (DMSO control wells) and negative control wells (no kinase added) on the reaction plate, (inhibition rate percentage=100−[(test compound−Min average value)/(Max average value−Min average value)]×100%. IC50 values of test compounds are calculated by fitting percentage of inhibition and ten-point concentration data to a 4-parameter nonlinear logic formula using GraphPad prism.

| SMILES | pIC50 |
| --- | --- |
| C[C@@H]1OCC2(CCN(c3ncc(Sc4cccc(Nc5ncccn5)c4Cl)cn3)CC2)[C@@H]1N [Compound 120, (3S,4S)-8-(5-((2-chloro-3-(pyrimidine-2-amino)phenyl)mercapto)pyrimidine-2-yl)-3-methyl-2-oxa-8-azaspiro[4.5]decane-4-amine] | ≥ 8.00 |
| CC(C)n1ccc(-c2cccc(Sc3cnc4nc(N5CCC6(CC5)CO[C@@H](C)[C@H]6N)ncc4n3)c2Cl)n1 [Compound 70, (3S,4S)-8-(6-((2-chloro-3-(1-isopropyl-1H-pyrazole-3-yl)phenyl)mercapto)pteridine-2-yl)-3-methyl-2-oxa-8-azaspiro[4.5]decane-4-amine] | ≥ 8.00 |
| C[C@@H]1OCC2(CCN(c3ccc4nc(Sc5cccc(-c6ccncn6)c5Cl)ncc4n3)CC2)[C@@H]1N [Compound 77, (3S,4S)-8-(2-((2-chloro-3-(pyrimidine-4-yl)phenyl)mercapto)pyridinyl[3,2-d]pyrimidine-6-yl)-3-methyl-2-oxa-8-azaspiro[4.5]decane-4-amine] | ≥ 8.00 |
| N[C@@H]1c2cnccc2CC12CCN(c1cnc3c(=O)n(-c4cccc(Cl)c4Cl)c(=O)[nH]c3n1)CC2 [Compound 16, (S)-7-(7-Amino-5,7-dihydrospiro [cyclopenta[c]pyridine-6,4′-piperidine]-1′-yl)-3-(2,3-dichlorophenyl)pteridine-2,4(1H,3H)-dione] | 7.00 to 8.00 |
| CCn1ccc(-c2cccc(Sc3nnc(N4CCC5(CC4)CO[C@@H](C)[C@H]5N)nn3)c2Cl)n1 [Compound 128, (3S,4S)-8-(3-((2-chloro-3-(1-ethyl-1H-pyrazole-3-yl)phenyl)mercapto)-tetrazine-6-yl)-3-methyl-2-oxa-8-azaspiro[4.5]decane-4-amine] | ≥ 8.00 |
| C[C@@H]1OCC2(CCN(c3ccc4nc(Sc5cccc(NC(=O)c6c(O)nc7n(c6=O)CCCC7)c5Cl)ncc4n3)CC2)[C@@H]1N [Compound 89, N-(3-((6-((3S,4S)-4-amino-3-methyl-2-oxa-8-azaspiro[4.5]decane-8-yl)pyridinyl[3,2-d]pyrimidine-2-yl)mercapto)-2-chlorophenyl)-2-hydroxy-4-oxo-6,7,8,9-tetrahydro-4H-pyridinyl[1,2-a]pyrimidine-3-carboxamide] | ≥ 8.00 |
| N[C@@H]1c2cccnc2CC12CCN(c1cnc3c(=O)n(-c4cccc(Cl)c4Cl)c(=O)[nH]c3n1)CC2 [Compound 14, (S)-7-(5-Amino-5,7-dihydrospiro [cyclopenta[b]pyridine-6,4′-piperidine]-1′-yl)-3-(2,3-dichlorophenyl)pteridine-2,4(1 H,3H)-dione] | 7.00 to 8.00 |
| C[C@@H]1OCC2(CCN(c3ncc4nc(Sc5cccc(NC(=O)c6ccncn6)c5Cl)cnc4n3)CC2)[C@@H]1N [Compound 82, N-(3-((2-((3S,4S)-4-amino-3-methyl-2-oxa-8-azaspiro[4.5]decane-8-yl)pteridine-6-yl)mercapto)-2-chlorophenyl)pyrimidine-4-carboxamide] | ≥ 8.00 |
| Nc1nccc(-n2c(=O)[nH]c3nc(N4CCC5(CC4)Cc4cnccc4[C@H]5N)cnc3c2=O)c1Cl [Compound 20, (S)-3-(2-amino-3-chloropyridine-4-yl)-7-(5-amino-5,7-dihydrospiro[cyclopenta[c]pyridine-6,4′-piperidine]-1′-yl)pteridine-2,4(1H,3H)-dione] | ≥ 8.00 |
| CCn1ccc(-c2cccc(Sc3ccc(N4CCC5(CC4)CO[C@@H](C)[C@H]5N)nn3)c2Cl)n1 [Compound 127, (3S,4S)-8-(3-((2-chloro-3-(1-ethyl-1H-pyrazole-3-yl)phenyl)mercapto)pyridazine-6-yl)-3-methyl-2-oxa-8-azaspiro[4.5]decane-4-amine] | ≥ 8.00 |
| C[C@@H]1OCC2(CCN(c3cnc4nc(Sc5cccc(-c6ccn(C)n6)c5Cl)ncc4n3)CC2)[C@@H]1N [Compound 63, (3S,4S)-8-(2-((2-chloro-3-(1-methyl-1H-pyrazole-3-yl)phenyl)mercapto)pteridine-6-y 1)-3-methyl-2-oxa-8-azaspiro[4.5]decane-4-amine] | ≥ 8.00 |
| CCn1ccc(-c2cccc(Sc3ncc4nc(N5CCC6(CC5)CO[C@@H](C)[C@H]6N)cnc4n3)c2Cl)n1 [Compound 66, (3S,4S)-8-(2-((2-chloro-3-(1-ethyl-1H-pyrazole-3-yl)phenyl)mercapto)pteridine-6-yl)-3-methylyl-2-oxa-8-azaspiro[4.5]decane-4-amine] | ≥ 8.00 |
| NC1COCC12CCN(c1ccc3c(=O)n(-c4cccc(Cl)c4Cl)c(=O)[nH]c3c1)CC2 (stereo in doubt) [Compound 2, (S)-7-(4-amino-2-oxa-8-azaspiro[4.5]decane-8-yl)-3-(2,3-dichlorophenyl)quinazoline-2,4(1H,3H)-dione] | ≥ 8.00 |
| CCn1ccc(-c2cccc(Sc3ncc(N4CCC5(CC4)CO[C@@H](C)[C@H]5N)nn3)c2Cl)n1 [Compound 129, (3S,4S)-8-(3-((2-chloro-3-(1-ethyl-1H-pyrazole-3-yl)phenyl)mercapto)-1,2,4-triazine-6-yl)-3-methyl-2-oxa-8-azaspiro[4.5]decane-4-amine] | ≥ 8.00 |
| N[C@@H]1c2ccccc2CC12CCN(c1cnc3c(=O)n(-c4cccc(Cl)c4Cl)c(=O)[nH]c3n1)CC2 [Compound 13, (S)-7-(1-amino-1,3-dihydrospiro[indene-2,4′-piperidine]-1′-yl)-3-(2,3-dichlorophenyl) pteridine-2,4(1H,3H)-dione] | 7.00 to 8.00 |
| C[C@@H]1OCC2(CCN(c3cnc(Sc4cccc(Nc5ncccn5)c4Cl)nc3)CC2)[C@@H]1N [Compound 108, (3S,4S)-8-(2-((2-chloro-3-(pyrimidine-2-amino)phenyl)mercapto)pyrimidine-5-yl)-3-methyl-2-oxa-8-azaspiro[4.5]decane-4-amine] | 7.00 to 8.00 |
| C[C@@H]1OCC2(CCN(c3cnc(Sc4cccc(-c5ccn(C)n5)c4Cl)nc3)CC2)[C@@H]1N [Compound 99, (3S,4S)-8-(2-((2-chloro-3-(1-methyl-1H-pyrazole-3-yl)phenyl)mercapto)pyrimidine-5-yl)-3-methyl-2-oxa-8-azaspiro[4.5]decane-4-amine] | ≥ 8.00 |
| NC1c2cnccc2CC12CCN(c1ccc3c(=O)n(-c4cccc(Cl)c4Cl)c(=O)[nH]c3c1)CC2 (stereo in doubt) [Compound 6, (S)-7-(7-Amino-5,7-dihydrospiro [cyclopenta[c]pyridine-6,4′-piperidine]-1′-yl)-3-(2,3-dichlorophenyl)quinazoline-2,4(1H,3H)-dione] | ≥ 8.00 |
| C[C@@H]1OCC2(CCN(c3ncc4nc(Sc5cccc(NC(=O)c6c(O)nc7n(c6=O)CCCC7)c5Cl)ccc4n3)CC2)[C@@H]1N [Compound 96, N-(3-((2-((3S,4S)-4-amino-3-methyl-2-oxa-8-azaspiro[4.5]decane-8-yl)pyridinyl[3,2-d]pyrimidine-6-yl)mercapto)-2-chlorophenyl)-2-hydroxy-4-oxo-6,7,8,9-tetrahydro-4H-pyridinyl[1,2-a]pyrimidine-3-carboxamide] | ≥ 8.00 |
| C[C@@H]1OCC2(CCN(c3ccc4nc(Sc5cccc(NC(=O)c6c(O)nc7n(c6=O)CCCC7)c5Cl)cnc4n3)CC2)[C@@H]1N [Compound 97, N-(3-((6-((3S,4S)-4-amino-3-methyl-2-oxa-8-azaspiro[4.5]decane-8-yl)pyridinyl[2,3-b]pyrazine-2-yl)mercapto)-2-chlorophenyl)-2-hydroxy-4-oxo-6,7,8,9-tetrahydro-4H-p yridinyl[1,2-a]pyrimidine-3-carboxamide] | ≥ 8.00 |
| C[C@@H]1OCC2(CCN(c3cnc4nc(Sc5cccc(Oc6ccn(C)n6)c5Cl)ncc4n3)CC2)[C@@H]1N [Compound 94] | ≥ 8.00 |
